Laboratory results from patent US11739122B2, “Glycopeptide antibiotic compounds, methods for producing the same, and uses thereof” (Academia Sinica, priority 2019, dated 2023).
Several values for one entry are separate records, joined by “and”; a condition that tells them apart may be missing. Equal values may be shown once. Where a name gives a salt, the structure may show the parent alone. Read-outs that look alike come from different tables or passages of the source.

What was measured:
A. baumannii ATCC 19606 [1] = assay: In vivo efficacy, intranasal A. baumannii infection; design: species or system mice; conditions: BAL fluid, 24 hours post-inoculation; 24 and kanamycin 30, amikacin 15 mgkg^−1
Method: In Vivo Efficacy of r6,N-Acyl-Glc Tei Analogs
Female C57BL/6 mice (6 weeks of age; about 16-19 g, 3-5 mice per group) were intraperitoneally inoculated with 300 μL of MRSA ATCC 700787 suspension (about 10^7 CFUmL^−1). For intranasal A. baumannii (ATCC 19606) inoculation, mice were anesthetized, and inoculated intranasally with about 10^7-10^8 CFUmL^−1 A. baumannii in 50 μL of PBS. Treatments were started 1 hour after the bacterial challenge. The dose administration to mice was set as follows: teicoplanin (1) or r6,C8-Tei analog (14) 20 mgkg^−1 was intraperitoneally injected to MRSA-infected mice; amikacin (15 mgkg^−1), teicoplanin (1) (30 mgkg^−1), kanamycin (30 mgkg^−1) or r1,Me2-r6,guanidino-C8 analog (24) (30 mgkg^−1) was intraperitoneally injected to AB-infected mice. To assess bacteraemia, the test animals were sacrificed to collect 1 mL of peritoneal fluid (PF) for MRSA counting or the lungs were lavaged to collect 0.6 mL bronchoalveolar lavage (BAL) fluid for A. baumannii counting.
For AB (ATCC 19606), female C57BL/6 mice were first anesthetized by intraperitoneal injection of zoletil and then intranasally inoculated with 50 μL of bacteria in a PBS solution (about 10^7-10^8 CFUmL^−1). The treatment started 1 hour post-infection with a single dose of compound 24 (30 mgkg^−1), compound 1 (30 mgkg^−1), amikacin (15 mgkg^−1), or kanamycin (30 mgkg^−1), where saline/compound 1 and amikacin/kanamycin respectively served as negative and positive controls. To assess the density of bacteraemia, the lungs of mice were lavaged to collect 0.6 mL bronchoalveolar lavage (BAL) fluid from each mouse at 24 hours post-inoculation. For saline/compound 1 treated controls, the bacterial load was counted (about 4 log CFUmL^−1, FIG. 4B), where the bacterial load was reduced by 0.5 or 1 log CFUmL^−1 with the treatment of amikacin/kanamycin or compound 24, respectively.

A. baumannii ATCC 19606 [2] = assay: MIC, broth microdilution; type: cell-based, Acinetobacter baumannii
Method: Determination of Minimal Inhibitory Concentration (MIC) for Vancomycin, Teicoplanin and Tei-Analogs Versus Selected Strains
MICs were determined by the broth microdilution method. Specifically, 12 Colonies of the test strain were picked up from 18-24 hour agar cultures and freshly inoculated into broth mediums until reaching the turbidity of a 0.5 McFarland standard. The broth culture was adjusted with broth medium to approximately 1×10^8 CFUmL^−1. […] The plates were incubated in 37° C. for 18-24 hours and monitored for the wells of the positive control, where cells grew, and the wells of the negative control, where wells should not grow. The MIC value was determined for the concentration of a test compound, at which there was no visible growth in the well.

A. baumannii ATCC 19606 [3] = assay: Thin-section TEM, cell wall morphology; type: cell-based, Acinetobacter baumannii; conditions: AB ATCC 19606; 24 50 μM, colistin 3.2 μM, combination 25 μM each
Method: Thin-Section Transmission Electron Microscopy (TEM)
An overnight cultured MRSA ATCC 700787, VRE ATCC 700221 or A. baumannii ATCC 19606 was individually sub-cultured into a fresh medium. Bacteria at the exponential phase were treated with a given test compound at a concentration of 4×MIC for 1-4 hour at 37° C. and followed by wash and resuspension in PBS. Bacteria cells for the TEM analysis were prepared as follows: Cells were fixed with 2.5% glutaraldehyde for 30 minutes. After the fixation, cells were washed twice with PBS and fixed with 1% osmium tetraoxide for another 30 minutes. All the buffer was removed with distilled water. The cells were then stained with 1% uranyl acetate and dehydrated with a graded ethanol solution. Cells were embedded in resin. Finally, each sample was cut into thin slices of approximately 90 nm with a glass knife and stained with uranyl acetate. The images of bacterial morphological were recorded.

Dbv27 = Dbv27 (Nonomuraea gerenzanensis, UniProt Q7WZ64); assay: ITC binding affinity; conditions: ITC versus Dbv27
Dbv27, sequence (Q7WZ64 entry or part of it): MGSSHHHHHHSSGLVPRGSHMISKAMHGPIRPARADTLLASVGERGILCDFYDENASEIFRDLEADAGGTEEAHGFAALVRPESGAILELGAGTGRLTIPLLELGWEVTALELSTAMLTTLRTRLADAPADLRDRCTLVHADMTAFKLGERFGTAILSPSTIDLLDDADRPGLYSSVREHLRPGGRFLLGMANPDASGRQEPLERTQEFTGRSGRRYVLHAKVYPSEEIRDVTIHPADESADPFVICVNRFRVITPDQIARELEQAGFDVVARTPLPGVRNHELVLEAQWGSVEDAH
Method: Isothermal Titration Calormetry (ITC) Analysis
A stock solution (50 mM) was prepared by dissolving r6,GlcNAc pseudoaglycone (9) in 50% DMSO. The 1 mM protein solutions of Orf2*, Orf2*T and Dbv27 were prepared in a 50 mM HEPES buffer solution at pH 8.0. The solution (50 mM HEPES, pH8.0 and 10% DMSO) that contained compound 9 (1 mM) or S-adenosylmethionine (SAM) (1 mM) in a 40 μL injection syringe was titrated into the Orf2*, Orf2*T or Dbv27 (0.1 mM) protein solution, which was placed in the sample cell of a 200 μL volume. Each titration consisted of 16 injections of a 2 μL4 s^−1 duration in an interval of 150 seconds. Data analysis was performed by software.

NCC[C@H](O)C(=O)N[C@@H]1C[C@H](N)[C@@H](O[C@H]2O[C@H](CN)[C@@H](O)[C@H](O)[C@H]2O)[C@H](O)[C@H]1O[C@H]1O[C@H](CO)[C@@H](O)[C@H](N)[C@H]1O [amikacin]
bacterial load reduced by (A. baumannii ATCC 19606 [1]): 0.5 log CFUmL^−1

colistin sulfate [reference compound]
MIC on AB (A. baumannii ATCC 19606 [2]; A. baumannii ATCC 19606): 1.98 µg/mL | MIC (A. baumannii ATCC 19606 [2]; A. baumannii ATCC 19606, Table 3, first figure of cell): 1.56 µM | MIC (A. baumannii ATCC 19606 [2]; A. baumannii ATCC 19606, Table 3, second figure of cell): 1.98 µg/mL | cell membrane/cell wall morphology by TEM (A. baumannii ATCC 19606 [3]): intactness of cell membrane/cell wall was severely damaged

NC[C@H]1O[C@H](O[C@H]2[C@H](O)[C@@H](O[C@H]3O[C@H](CO)[C@@H](O)[C@H](N)[C@H]3O)[C@H](N)C[C@@H]2N)[C@H](O)[C@@H](O)[C@@H]1O [kanamycin sulfate, reference compound]
MIC (A. baumannii ATCC 19606 [2]; Acinetobacter baumannii, ATCC19606): 25 µM and 14.6 µg/mL | MIC (A. baumannii ATCC 19606 [2]; Acinetobacter baumannii, ATCC19606, read-out: MIC on AB): 14.6 µg/mL | bacterial load reduced by (A. baumannii ATCC 19606 [1]): 0.5 log CFUmL^−1

C[S+](CC[C@H](N)C(=O)[O-])C[C@H]1O[C@@H](n2cnc3c(N)ncnc32)[C@H](O)[C@@H]1O (stereo partly drawn) [SAM, S-adenosylmethionine, reference compound]
Kd (Dbv27): 10 µM
